Experimental data taken from US7091201B2, “Arylalkane-sulfonamides having endothelin-antagonist activity” (Actelion Pharmaceuticals Ltd., priority 2000, dated 2006).

Assays:
[1] = biological target: T1, human recombinant ETB receptors (Homo sapiens, UniProt P24530); assay: Inhibition of [125I]ET-1 binding to membranes from CHO cells carrying human ETB receptors
T1 construct: expressed in transfected cells; host or cells: CHO cells
T1 sequence (P24530 27-442): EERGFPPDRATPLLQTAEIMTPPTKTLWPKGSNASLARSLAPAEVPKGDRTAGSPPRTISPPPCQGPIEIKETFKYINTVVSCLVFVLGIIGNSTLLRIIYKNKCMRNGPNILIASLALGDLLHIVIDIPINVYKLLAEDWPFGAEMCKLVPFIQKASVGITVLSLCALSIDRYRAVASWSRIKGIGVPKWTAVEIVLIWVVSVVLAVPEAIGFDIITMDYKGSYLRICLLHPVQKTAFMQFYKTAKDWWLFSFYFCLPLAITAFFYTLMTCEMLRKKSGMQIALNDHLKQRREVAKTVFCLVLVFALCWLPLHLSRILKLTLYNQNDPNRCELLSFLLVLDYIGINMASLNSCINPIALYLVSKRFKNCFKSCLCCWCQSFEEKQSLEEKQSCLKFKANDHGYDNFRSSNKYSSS
Protocol: (§1) 1) Inhibition of Endothelin Binding to Membranes from CHO Cells Carrying Human ET Receptors:
(§2) For competition binding studies, membranes of CHO cells expressing human recombinant ETA or ETB receptors were used.
(§3) The assay was performed in 200 uL 50 mM Tris/HCl buffer, pH 7.4, including 25 mM MnCl2, 1 mM EDTA and 0.5% (w/v) BSA in polypropylene microtiter plates. […] After 2 h, the membranes were filtered on filterplates containing GF/C filters (Unifilterplates from Can berra Packard S. A. Zürich, Switzerland). To each well, 50 uL of scintillation cocktail was added (MicroScint 20, Can berra Packard S. A. Zürich, Switzerland) and the filter plates counted in a microplate counter (TopCount, Can berra Packard S. A. Zürich, Switzerland).
(§4) All the test compounds were dissolved, diluted and added in DMSO.

[2] = biological target: T2, human recombinant ETA receptors (Homo sapiens, UniProt P25101); assay: Inhibition of [125I]ET-1 binding to membranes from CHO cells carrying human ETA receptors
T2 construct: expressed in transfected cells; host or cells: CHO cells
T2 sequence (P25101 21-427): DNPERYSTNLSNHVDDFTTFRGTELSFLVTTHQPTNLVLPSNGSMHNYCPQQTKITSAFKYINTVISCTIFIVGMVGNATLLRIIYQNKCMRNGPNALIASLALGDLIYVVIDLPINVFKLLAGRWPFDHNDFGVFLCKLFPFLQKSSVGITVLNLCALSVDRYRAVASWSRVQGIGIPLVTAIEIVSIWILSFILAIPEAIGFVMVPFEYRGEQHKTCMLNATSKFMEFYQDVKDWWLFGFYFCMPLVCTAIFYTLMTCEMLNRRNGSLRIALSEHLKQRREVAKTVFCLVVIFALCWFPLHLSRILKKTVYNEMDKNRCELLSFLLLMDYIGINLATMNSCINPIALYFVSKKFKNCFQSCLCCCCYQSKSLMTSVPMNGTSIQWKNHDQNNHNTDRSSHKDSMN
Protocol: as §1, §2, §3, §4

[3] = biological target: T3, rat aortic rings (ETA receptors) (Rattus norvegicus, UniProt P26684); assay: Inhibition of endothelin-1-induced contractions on isolated rat aortic rings; type: cell-based; details: read-out: pA2 (aortic rings) (converted)
T3 construct: from tissue; host or cells: thoracic aorta rings of adult Wistar rats, endothelium removed
T3 sequence (P26684 21-426): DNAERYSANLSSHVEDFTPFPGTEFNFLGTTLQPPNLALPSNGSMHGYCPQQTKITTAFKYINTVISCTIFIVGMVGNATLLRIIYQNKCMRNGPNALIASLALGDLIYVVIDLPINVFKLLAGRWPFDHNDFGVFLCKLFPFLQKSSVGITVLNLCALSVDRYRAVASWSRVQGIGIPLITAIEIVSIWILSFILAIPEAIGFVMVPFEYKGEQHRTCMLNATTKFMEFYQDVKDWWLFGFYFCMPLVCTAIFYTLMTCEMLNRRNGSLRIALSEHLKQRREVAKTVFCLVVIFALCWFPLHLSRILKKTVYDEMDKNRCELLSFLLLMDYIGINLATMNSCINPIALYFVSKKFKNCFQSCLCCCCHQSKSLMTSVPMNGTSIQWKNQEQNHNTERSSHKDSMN
Protocol: (§5) 2) Inhibition of Endothelin-Induced Contractions on Isolated Rat Aortic Rings (ETA Receptors) and Rat Tracheal Rings (ETB Receptors):
(§6) Adult Wistar rats were anesthetized and exsanguinated. The thoracic aorta or trachea were excised, dissected and cut in 3–5 mm rings. The endothelium/epithelium was removed by gentle rubbing of the intimal surface. […] The rings were connected to force transducers and isometric tension was recorded (EMKA Technologies SA, Paris, France). The rings were stretched to a resting tension of 3 g (aorta) or 2 g (trachea). […] The functional inhibitory potency of the test compound was assessed by calculating the concentration ratio, i.e. the shift to the right of the EC50 induced by different concentrations of test compound. EC50 is the concentration of endothelin needed to get a half-maximal contraction, pA2 is the negative logarithm of the antagonist concentration which induces a two-fold shift in the EC50 value.

[4] = biological target: T4, rat tracheal rings (ETB receptors) (Rattus norvegicus, UniProt P21451); assay: Inhibition of sarafotoxin S6c-induced contractions on isolated rat tracheal rings; type: cell-based
T4 construct: from tissue; host or cells: tracheal rings of adult Wistar rats, epithelium removed
T4 sequence (P21451 27-442): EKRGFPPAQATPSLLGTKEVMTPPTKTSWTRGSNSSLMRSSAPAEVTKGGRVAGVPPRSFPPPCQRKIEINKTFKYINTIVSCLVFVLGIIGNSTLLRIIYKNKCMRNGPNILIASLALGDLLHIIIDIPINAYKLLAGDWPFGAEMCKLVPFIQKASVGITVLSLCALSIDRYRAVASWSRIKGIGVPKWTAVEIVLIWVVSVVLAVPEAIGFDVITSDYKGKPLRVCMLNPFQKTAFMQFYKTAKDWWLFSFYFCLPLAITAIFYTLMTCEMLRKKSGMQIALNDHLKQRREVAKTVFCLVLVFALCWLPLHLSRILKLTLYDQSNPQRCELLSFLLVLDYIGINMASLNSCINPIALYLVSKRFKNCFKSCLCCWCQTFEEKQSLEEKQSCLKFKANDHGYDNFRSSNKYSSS
Protocol: as §5, §6

Structure (SMILES)	IC50 [1]	IC50 [2]	Kb [3]	Kb [4]
Cc1ccc(-c2c(NS(=O)(=O)CCc3cccs3)ncnc2OCCOc2ncc(Br)cn2)cc1 [Example 49]	2490 nM	4 nM		
COc1cnc(OCCOc2nc(-c3cnccn3)nc(NS(=O)(=O)CCc3ccccc3)c2Oc2ccccc2OC)nc1 [Example 34]			21.4 nM	
Cc1ccc(-c2c(NS(=O)(=O)CCc3ccccc3)nc(-c3ncccn3)nc2OCCOc2ncc(Br)cn2)cc1 [Example 14]	2230 nM	6 nM		
COc1cccc(Oc2c(NS(=O)(=O)CCc3ccccc3)ncnc2OCCOc2ncc(Br)cn2)c1 [Example 46]	2360 nM	7 nM		
Cc1ccc(-c2c(NS(=O)(=O)CCCc3ccccc3)ncnc2OCCOc2ncc(Br)cn2)cc1 [Example 75]			17.4 nM	
Cc1ccc(-c2c(NS(=O)(=O)CCc3ccccc3)ncnc2OCCOc2ncc(Br)cn2)cc1 [Example 7]	3310 nM	4 nM	1.48 nM	85.1 nM
Cc1ccc(-c2c(NS(=O)(=O)CCc3ccccc3)nc(-c3ncccn3)nc2OCCOc2ncc(Cl)cn2)cc1 [Example 13]	3680 nM	4 nM		
COc1ccccc1Oc1c(NS(=O)(=O)Cc2ccc(C)cc2)nc(-c2ccncc2)nc1OCCOc1ncc(Br)cn1 [Example 71]	> 10000 nM	115 nM		
Cc1ccc(-c2c(NS(=O)(=O)CCc3ccccc3)ncnc2OCCOc2ncc(Br)cn2)cc1C [Example 19]	1930 nM	3 nM		
COc1ccccc1Oc1c(NS(=O)(=O)CCc2ccccc2)nc(-c2ncccn2)nc1OCCOc1ncc(Br)cn1 [Example 5, 2phenylethanesulfonic acid {5-(2-methoxy-phenoxy)-6-[2-(5-bromopyrimidin-2-yloxy)-ethoxy]-2-(2-pyrimidinyl)-4-pyrimidinyl}-amide]		3 nM	4.17 nM	
COc1ccccc1Oc1c(NS(=O)(=O)CCc2ccccc2)nc(N2CCOCC2)nc1OCCOc1ncc(SC)cn1 [Example 39]	261 nM	3 nM		
Cc1ccc(-c2c(NS(=O)(=O)CCc3ccccc3)nc(-c3ccncc3)nc2OCCOc2ncc(Br)cn2)cc1 [Example 10]	2410 nM	9 nM		
Cc1ccc(-c2c(NS(=O)(=O)CCc3ccccc3)ncnc2OCCOc2ccc(C(F)(F)F)cn2)cc1 [Example 2, 2-phenyl-ethanesulfonic acid {5-p-tolyl-6-[2-(5-trifluoromethyl-pyridin-2-yloxy)-ethoxy]-pyrimidin-4-yl}-amide]	899 nM	20 nM		
Cc1ccc(-c2c(NS(=O)(=O)CCc3ccccc3)ncnc2OCCOc2ncccn2)cc1 [Example 1, 2-phenyl-ethanesulfonic acid {6-[2-(pyrimidin-2-yloxy)-ethoxy]-5-p-tolyl-pyrimidin-4-yl}-amide]	6650 nM	27 nM		
O=S(=O)(CCc1cccs1)Nc1ncnc(OCCOc2ncc(Br)cn2)c1-c1ccc(Cl)cc1 [Example 52]	1770 nM	5 nM		
COc1cnc(OCCOc2nc(-c3ncccn3)nc(NS(=O)(=O)CCc3ccccc3)c2Oc2ccccc2OC)nc1 [Example 29]		10 nM		
COc1cnc(OCCOc2ncnc(NS(=O)(=O)CCc3ccccc3)c2Oc2cccc(OC)c2)nc1 [Example 47]	2720 nM	24 nM		
Cc1ccc(-c2c(NS(=O)(=O)CCc3ccccc3)ncnc2OCCOc2ncc(C)cn2)cc1 [Example 8]			37.2 nM	
COc1ccccc1Oc1c(NS(=O)(=O)CCc2ccccn2)nc(-c2ccncc2)nc1OCCOc1ncc(Br)cn1 [Example 61]	1140 nM	10 nM	14.8 nM	85.1 nM
